According to paper PMC5051147, “Ester Hydrolysis Differentially Reduces Aconitine-Induced Anti-hypersensitivity and Acute Neurotoxicity: Involvement of Spinal Microglial Dynorphin Expression and Implications for Aconitum Processing” (Frontiers in Pharmacology, 2016):

Test system: prodynorphin gene expression in primary cultures of spinal microglia
Experiment: Prodynorphin gene expression in cultured primary spinal microglia (real-time quantitative PCR)
Format: cell-based, rat
Experimental: Glial cells were isolated from the 1-day-old neonatal rats. The isolated spinal cords were minced and then incubated with trypsin. Dissociated cells were suspended in 75-cm^2 tissue culture flasks (1 × 10^7 cells/flask) precoated with poly-L-lysine and maintained in a 5% CO2 incubator at 37°C. After culture for 10 days, the microglial cells were prepared as floating cell suspensions by shaking the flask at 260 rpm for 2 h. The aliquots were transferred to plates, and the unattached cells were removed by washing with serum-free Dulbecco’s modified Eagle’s medium.
RNA extraction, reverse transcription, and real-time quantitative PCR were performed as previously described ([Chen et al., 2012]). The spinal lumbar enlargements of rats were collected and mechanically homogenized with an electronic microhomogenizer at 4,000 rpm for 10 s in TRIzol on ice. Total RNA from the spinal lumbar enlargements were isolated using TRIzol reagent (Invitrogen, Grand Island, NY, USA). A 1-μg sample of total RNA was reverse-transcribed with a ReverTra Ace qPCR RT-Kit (Toyobo, Japan). Real-time quantitative PCR was carried out with the Mastercycler ep realplex (Eppendorf, Germany) using the RealmasterMix (SYBR Green I) (Toyobo). The fold change was calculated with the 2^-ΔΔCt method after normalization to the gene of gapdh. […]
The percentage of maximal possible effect (% MPE) was calculated using the following formula: (postdrug threshold in ipsilateral hindlimb – baseline threshold in ipsilateral hindlimb)/(baseline threshold in contralateral hindlimb – baseline threshold in ipsilateral hindlimb) × 100 ([Bowersox et al., 1996]). […] For the dose-response curve analysis, the parameters (i.e., minimum effect; Emax, median effective concentration or dose, or median toxic or lethal dose [EC50, ED50, TD50, or LD50], and Hill coefficient [n]) were calculated from the individual dose-response curves using the Prism program (version 5.01, GraphPad Software, San Diego, CA, USA). […]
Primary cultures of microglial cells taken from the spinal cords of the neonatal rats were treated with a variety of concentrations of aconitine (1 × 10^-8, 3 × 10^-8, 1 × 10^-7, 3 × 10^-7, and 1 × 10^-6 M), benzolyaconine (3 × 10^-7, 1 × 10^-6, 3 × 10^-6, 1 × 10^-5, 3 × 10^-5, and 1 × 10^-4 M) and aconine (1 × 10^-4, 3 × 10^-4, 1 × 10^-3, 3 × 10^-3, and 1 × 10^-2 M) for 2 h. As the bulleyaconitine A-increased dynorphin A level measured by the enzyme-linked immunosorbent assay was in parallel with the prodynorphin gene expression in spinal microglia from neonatal and adult rats ([Li et al., 2016]), the expression of the cellular prodynorphin gene encoding dynorphin A was only measured in this study using real-time quantitative PCR. […]

With `CCN1C[C@]2(COC)[C@H](O)C[C@H](OC)[C@@]34[C@@H]5C[C@@]6(O)[C@H](OC(=O)c7ccccc7)[C@@H]5[C@@](OC(C)=O)([C@@H]([C@H](OC)[C@H]23)[C@@H]14)[C@@H](O)[C@@H]6OC` [Aconitine, aconitine] the “Potency on microglial dynorphin A expression relative to bulleyaconitine A (more potent by)” value (EC50 32 nM versus 45 nM) was “approximately 0.5 fold” and the EC50 (Rattus norvegicus, primary spinal microglia of neonatal rats, 2 h incubation, read-out: EC50, stimulation of prodynorphin gene (dynorphin A) expression) was 32 nM.
